Test [1] has as its target T1, human calcitonin receptor (hCTR2) (Homo sapiens, UniProt P30988).
T1 construct: expressed in transfected cells
T1 sequence (P30988 25-474): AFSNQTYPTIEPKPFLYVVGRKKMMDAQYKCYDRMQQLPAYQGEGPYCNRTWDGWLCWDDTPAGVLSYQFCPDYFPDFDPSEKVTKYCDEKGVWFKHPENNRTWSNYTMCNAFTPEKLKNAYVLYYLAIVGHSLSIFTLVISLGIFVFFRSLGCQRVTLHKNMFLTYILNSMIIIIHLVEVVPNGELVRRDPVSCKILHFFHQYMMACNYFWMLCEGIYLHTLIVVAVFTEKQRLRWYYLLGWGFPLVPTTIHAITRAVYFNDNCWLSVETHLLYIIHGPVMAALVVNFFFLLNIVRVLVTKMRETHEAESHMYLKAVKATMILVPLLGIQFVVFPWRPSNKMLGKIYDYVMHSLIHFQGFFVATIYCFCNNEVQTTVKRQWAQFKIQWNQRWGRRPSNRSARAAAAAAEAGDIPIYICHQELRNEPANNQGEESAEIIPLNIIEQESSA
Description: hCTR2 assay: induction of cAMP (AlphaScreen cAMP Assay kit) in COS7 cells expressing hCTR2. Format: cell-based. The settings on record: cAMP induction in COS7 cells expressing hCTR2; average of a minimum of 3 determinations; read-out: hCTR2 EC50. Summed up:
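cAMP induction was measured by AlphaScreen in COS7 cells stably expressing hCTR2 without RAMPs, after 15 min at 37° C with increasing peptide concentrations, 100 µM IBMX and 0.1% casein (Tyrode, pH 7.4). A 4-parameter logistic fit gave EC50 and % efficacy versus pramlintide.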
In general terms: Alpha assays give light when donor and acceptor beads are brought close together.

In test [2] the target is T2, human amylin receptor 3 (hAMYR3) consisting of hCTR2 co-expressed with human Receptor Activity Modifying Protein 3 (hRAMP3) (Homo sapiens, UniProt O60896+P30988).
T2 construct: expressed in transfected cells
T2 sequence (P30988 25-474): T1 sequence (P30988 25-474)
T2 sequence (O60896 24-148 partner): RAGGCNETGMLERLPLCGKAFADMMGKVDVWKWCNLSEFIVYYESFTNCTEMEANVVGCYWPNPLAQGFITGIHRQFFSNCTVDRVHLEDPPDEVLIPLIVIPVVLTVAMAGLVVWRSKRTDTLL
Description: hAMYR3 assay: induction of cAMP (AlphaScreen cAMP Assay kit) in COS7 cells expressing hAMYR3. It is filed as cell-based. As to conditions: cAMP induction in COS7 cells expressing hAMYR3; average of a minimum of 3 determinations; read-out: hAMY R3 EC50. From the text: The cell line COS7, originating from African Green Monkey kidney fibroblast cells, was used for establishment of the stable cell lines described below. The COS7 cellular background was used due to it being RAMP naive, and as such it provides the best available system for testing of the monomeric hCTR and different heterodimeric amylin receptor subtypes functionally generated by introduction of the individual RAMPs.
A cell line expressing the human amylin receptor 3 (hAMYR3) was generated in the COS7 cellular background as stable clones. In brief, hCTR2 (GI:4502547) and hRAMP3 (GI:118572586) were amplified by PCR using primers encoding terminal restriction sites for subcloning. The 5'-end primers additionally encoded a near Kozak consensus sequence to ensure efficient translation. The fidelity of the DNA encoding the receptor was confirmed by DNA sequencing. The PCR products encoding the receptor were subcloned into a proprietary tri-cistronic mammalian expression vector with RAMP3, hCTR2 and neomycin (G418) resistance marker. The mammalian expression vector encoding the receptor was transfected into COS7 cells by a standard liposome transfection method. 48 hours post-transfection, cells were seeded for limited dilution cloning and selected with 1 mg/ml G418 in the culture medium. After 3 weeks, surviving colonies of hAMY3R-expressing cells were picked, propagated and tested in the amylin efficacy assay as described in Example 3 below. The functional generation of the amylin receptor phenotype was verified in the efficacy assay by a left-shifted efficacy response to amylin relative to monomeric calcitonin receptor, and one hAMYR3-expressing clone was chosen for compound profiling.
In vitro activity of test peptides at the hCTR2 and hAMYR3 receptors was assessed by measuring the induction of cAMP following stimulation of the receptor by pramlintide or peptides of the invention using the AlphaScreen® cAMP Assay kit from Perkin-Elmer.
Briefly, COS7 cells expressing hCTR2 (see Example 2, above) were seeded at 30-40,000 cells per well in 96-well microtiter plates coated with 0.01 % poly-L-lysine, and grown for 1 day in culture in 100 µl growth medium [DMEM, 10% FCS, Penicillin (100 IU/ml), Streptomycin (100 µg/ml)]. On the day of analysis, growth medium was removed and the cells were washed once with 200 µl Tyrode buffer [Tyrode's Salts (9.6 g/l), 10 mM HEPES, pH 7.4]. Cells were incubated in 100 µl Tyrode buffer containing increasing concentrations of test peptides, 100 µM IBMX and 0.1% casein for 15 min at 37° C. The reaction was stopped by carefully decanting off the compound/buffer medium and replacing it with lysis/detection buffer (80 µl 0.1 % w/v BSA, 5 mM HEPES, 0.3 % v/v Tween-20 in deionized water). After incubation at room temperature for 10 min., the cAMP content of the resulting cell lysate was estimated according to the AlphaScreen® cAMP Assay manufacturer's instructions. EC50 values and relative efficacy values (in %) compared to reference peptide (Pramlintide) were estimated by computer-aided curve fitting using the 4-parameter logistic (4PL) non-linear model.
The in vitro activity results (expressed as EC50 values) for peptides of the invention and for Pramlintide (reference peptide) are summarized in Table 2, below.

Numbered stars: 1 amine (or outer) side, 2 acyl side, 3 side chain; on linkers, the order of the positions; unused ones are H or OH. Bridge positions count the residues as written; N and C are the ends. Square brackets hold non-standard residues; d marks the D form. Peptide text beside a SMILES is read from it. * marks the point of attachment. C20 diacid = O=C(O)CCCCCCCCCCCCCCCCCCC(=O)*; γGlu = O=C(O)[C@H](CCC(=O)[*:2])N[*:1]; Hyp = O=C(O)[C@@H]1C[C@@H](O)CN1; NMeI = CC[C@H](C)[C@H](NC)C(=O)O; Sar = CNCC(=O)O

A word on the EC50: it is the concentration needed to bring the measured effect to its halfway point. On to `CC[C@H](C)[C@@H](C(=O)N[C@@H](CC(C)C)C(=O)N[C@@H](CO)C(=O)N[C@@H](CO)C(=O)N[C@H](C(=O)N[C@@H](CCC(=O)O)C(=O)N[C@H](C(=O)NCC(=O)N[C@@H](CO)C(=O)N[C@@H](CCC(=O)O)C(=O)N[C@H](C(=O)N1CCC[C@H]1C(N)=O)[C@@H](C)O)C(C)C)[C@@H](C)O)N(C)C(=O)[C@H](C)NC(=O)CN(C)C(=O)[C@H](Cc1ccccc1)NC(=O)[C@H](CO)NC(=O)[C@H](CO)NC(=O)[C@H](CO)NC(=O)[C@H](CO)NC(=O)[C@H](CCCNC(=N)N)NC(=O)[C@H](Cc1c[nH]cn1)NC(=O)[C@H](CC(C)C)NC(=O)[C@H](Cc1ccccc1)NC(=O)[C@H](CCC(=O)O)NC(=O)[C@H](C)NC(=O)[C@H](CC(C)C)NC(=O)[C@H](CCCNC(=N)N)NC(=O)[C@@H]1CCCN1C(=O)[C@@H](NC(=O)[C@H](C)NC(=O)[C@@H]1CSSC[C@H](NC(=O)[C@H](CCCNC(=N)N)NC(=O)CC[C@H](NC(=O)CCCCCCCCCCCCCCCCCCC(=O)O)C(=O)O)C(=O)N[C@@H](CC(N)=O)C(=O)N[C@@H]([C@@H](C)O)C(=O)N[C@@H](C)C(=O)N[C@@H]([C@@H](C)O)C(=O)N1)[C@@H](C)O` [Compound 142, [19CD]-isoGlu-RC()NTATC()ATPRLAEFLHRSSSSF-Gly(Me)-A-Ile(Me)-LSSTEVGSETP-NH2] ({C20 diacid-γGlu}-RCNTATCATPRLAEFLHRSSSSF[Sar]A[NMeI]LSSTEVGSETP-NH2; disulfide 2-7), for which the EC50 in test [1] turned out to be 0.14 nM; in test [2] it was 0.29 nM.
For `CC[C@H](C)[C@@H](C(=O)N[C@@H](CC(C)C)C(=O)N[C@@H](CO)C(=O)N[C@@H](CO)C(=O)N[C@H](C(=O)N[C@@H](CCC(=O)O)C(=O)N[C@H](C(=O)NCC(=O)N[C@@H](CO)C(=O)N[C@@H](CCC(=O)O)C(=O)N[C@H](C(=O)N1C[C@H](O)C[C@H]1C(N)=O)[C@@H](C)O)C(C)C)[C@@H](C)O)N(C)C(=O)[C@H](C)NC(=O)CN(C)C(=O)[C@H](Cc1ccccc1)NC(=O)[C@H](CO)NC(=O)[C@H](CO)NC(=O)[C@H](CCCNC(=N)N)NC(=O)[C@H](Cc1c[nH]cn1)NC(=O)[C@H](CC(C)C)NC(=O)[C@H](Cc1ccccc1)NC(=O)[C@H](CCC(=O)O)NC(=O)[C@H](C)NC(=O)[C@H](CC(C)C)NC(=O)[C@H](CCCNC(=N)N)NC(=O)[C@H](CCC(=O)O)NC(=O)[C@@H](NC(=O)[C@H](C)NC(=O)[C@@H]1CSSC[C@H](NC(=O)[C@H](Cc2c[nH]c3ccccc23)NC(=O)CC[C@H](NC(=O)CCCCCCCCCCCCCCCCCCC(=O)O)C(=O)O)C(=O)NCC(=O)N[C@@H]([C@@H](C)O)C(=O)N[C@@H](C)C(=O)N[C@@H]([C@@H](C)O)C(=O)N1)[C@@H](C)O` [Compound 164, [19CD]-isoGlu-WC()GTATC()ATERLAEFLHRSSF-Gly(Me)-A-Ile(Me)-LSSTEVGSET-Hyp-NH2] ({C20 diacid-γGlu}-WCGTATCATERLAEFLHRSSF[Sar]A[NMeI]LSSTEVGSET[Hyp]-NH2; disulfide 2-7) the same measures were 0.1 nM and 0.27 nM.
In the case of `CC[C@H](C)[C@@H](C(=O)N[C@@H](CC(C)C)C(=O)N[C@@H](CO)C(=O)N[C@@H](CO)C(=O)N[C@H](C(=O)N[C@@H](CCC(=O)O)C(=O)N[C@H](C(=O)NCC(=O)N[C@@H](CO)C(=O)N[C@@H](CCC(=O)O)C(=O)N[C@H](C(=O)N1C[C@H](O)C[C@H]1C(N)=O)[C@@H](C)O)C(C)C)[C@@H](C)O)N(C)C(=O)CN(C)C(=O)[C@H](Cc1ccccc1)NC(=O)[C@H](CO)NC(=O)[C@H](CO)NC(=O)[C@H](CO)NC(=O)[C@H](CO)NC(=O)[C@H](CCCNC(=N)N)NC(=O)[C@H](Cc1c[nH]cn1)NC(=O)[C@H](CC(C)C)NC(=O)[C@H](Cc1ccccc1)NC(=O)[C@H](CCC(=O)O)NC(=O)[C@H](C)NC(=O)[C@H](CC(C)C)NC(=O)[C@H](CCCNC(=N)N)NC(=O)[C@H](CCC(=O)O)NC(=O)[C@@H](NC(=O)[C@H](C)NC(=O)[C@@H]1CSSC[C@H](NC(=O)[C@H](CCCCN)NC(=O)[C@H](CCCCN)NC(=O)CC[C@H](NC(=O)CCCCCCCCCCCCCCCCCCC(=O)O)C(=O)O)C(=O)N[C@@H](CCC(=O)O)C(=O)N[C@@H]([C@@H](C)O)C(=O)N[C@@H](C)C(=O)N[C@@H]([C@@H](C)O)C(=O)N1)[C@@H](C)O` [Compound 169, [19CD]-isoGlu-KKC()ETATC()ATERLAEFLHRSSSSF-Gly(Me)-Ile(Me)-LSSTEVGSET-Hyp-NH2] ({C20 diacid-γGlu}-KKCETATCATERLAEFLHRSSSSF[Sar][NMeI]LSSTEVGSET[Hyp]-NH2; disulfide 3-8), the results for the EC50 in test [1] and in test [2] were 3.5 nM and 0.64 nM, respectively.
In the case of `CC[C@H](C)[C@@H](C(=O)N[C@@H](CC(C)C)C(=O)N[C@@H](CO)C(=O)N[C@@H](CO)C(=O)N[C@H](C(=O)N[C@@H](CCC(=O)O)C(=O)N[C@H](C(=O)NCC(=O)N[C@@H](CO)C(=O)N[C@@H](CCC(=O)O)C(=O)N[C@H](C(=O)N1C[C@H](O)C[C@H]1C(N)=O)[C@@H](C)O)C(C)C)[C@@H](C)O)N(C)C(=O)[C@H](C)NC(=O)CN(C)C(=O)[C@H](Cc1ccccc1)NC(=O)[C@H](CO)NC(=O)[C@H](CO)NC(=O)[C@H](CO)NC(=O)[C@H](CO)NC(=O)[C@H](CCCNC(=N)N)NC(=O)[C@H](Cc1c[nH]cn1)NC(=O)[C@H](CC(C)C)NC(=O)[C@H](Cc1ccccc1)NC(=O)[C@H](CCC(=O)O)NC(=O)[C@H](C)NC(=O)[C@H](CC(C)C)NC(=O)[C@H](CCCNC(=N)N)NC(=O)[C@H](CCC(=O)O)NC(=O)[C@@H](NC(=O)[C@H](C)NC(=O)[C@@H]1CSSC[C@H](NC(=O)[C@H](CCCNC(=N)N)NC(=O)CC[C@H](NC(=O)CCCCCCCCCCCCCCCCCCC(=O)O)C(=O)O)C(=O)N[C@@H](CCC(=O)O)C(=O)N[C@@H]([C@@H](C)O)C(=O)N[C@@H](C)C(=O)N[C@@H]([C@@H](C)O)C(=O)N1)[C@@H](C)O` [Compound 170, [19CD]-isoGlu-RC()ETATC()ATERLAEFLHRSSSSF-Gly(Me)-A-Ile(Me)-LSSTEVGSET-Hyp-NH2] ({C20 diacid-γGlu}-RCETATCATERLAEFLHRSSSSF[Sar]A[NMeI]LSSTEVGSET[Hyp]-NH2; disulfide 2-7), the EC50 in test [1] was determined as 0.65 nM; in test [2], 0.57 nM.

Source of the values: EP3046573B1, “AMYLIN ANALOGUES” (Zealand Pharma A/S, priority 2013, dated 2015).
